# ChEMBL document CHEMBL4725311, “Discovery of potent, orally bioavailable in vivo efficacious antagonists of the TLR7/8 pathway” (Bioorg Med Chem Lett, 2020)
# Molecular target: T1, Toll-like receptor 7 (Mus musculus, UniProt P58681)
# T1 sequence (P58681 whole entry): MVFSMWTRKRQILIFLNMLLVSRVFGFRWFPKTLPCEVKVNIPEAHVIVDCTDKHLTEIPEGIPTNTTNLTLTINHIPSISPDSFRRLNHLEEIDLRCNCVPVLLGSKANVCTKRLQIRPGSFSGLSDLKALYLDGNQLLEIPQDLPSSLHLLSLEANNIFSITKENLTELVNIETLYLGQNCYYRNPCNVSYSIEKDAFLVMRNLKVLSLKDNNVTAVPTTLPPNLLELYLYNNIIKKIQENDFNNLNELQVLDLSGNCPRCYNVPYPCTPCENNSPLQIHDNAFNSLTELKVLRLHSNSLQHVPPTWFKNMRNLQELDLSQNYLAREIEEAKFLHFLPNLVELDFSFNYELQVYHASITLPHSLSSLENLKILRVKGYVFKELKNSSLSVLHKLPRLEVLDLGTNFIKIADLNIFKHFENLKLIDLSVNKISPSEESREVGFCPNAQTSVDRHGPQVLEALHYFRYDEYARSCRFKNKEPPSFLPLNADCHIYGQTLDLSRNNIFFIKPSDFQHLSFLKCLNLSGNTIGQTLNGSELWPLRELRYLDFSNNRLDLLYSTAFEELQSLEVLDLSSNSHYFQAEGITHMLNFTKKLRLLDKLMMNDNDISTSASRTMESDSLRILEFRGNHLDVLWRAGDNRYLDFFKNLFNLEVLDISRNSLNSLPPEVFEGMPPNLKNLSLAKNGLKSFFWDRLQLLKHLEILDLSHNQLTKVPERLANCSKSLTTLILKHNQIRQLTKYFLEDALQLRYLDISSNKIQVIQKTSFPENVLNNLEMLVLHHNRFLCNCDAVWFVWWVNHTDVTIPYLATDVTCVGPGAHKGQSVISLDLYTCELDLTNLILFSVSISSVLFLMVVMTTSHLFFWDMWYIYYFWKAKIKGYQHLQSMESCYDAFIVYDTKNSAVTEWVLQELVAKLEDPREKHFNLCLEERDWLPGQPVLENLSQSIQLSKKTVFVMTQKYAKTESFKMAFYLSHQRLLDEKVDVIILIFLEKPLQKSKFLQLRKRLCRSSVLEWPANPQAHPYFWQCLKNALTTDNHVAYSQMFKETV
# Assay: Antagonist activity at TLR7 in mouse P4H1 cells assessed as inhibition of imiquimod-induced IL6 production
# Format: cell-based
# Details: not given
row,IC50 [µM],SMILES
1,0.17,CN1CCN(CCCOc2ccc(-c3nn(C)c4nc(N)ncc34)cc2F)CC1

# Molecular target: T1, Toll-like receptor 7
# Assay: Antagonist activity at TLR7 in mouse splenocytes assessed as inhibition of ssRNA40-induced IL6 production
# Format: cell-based, Splenocyte
# Details: not given
row,IC50 [µM],SMILES
1,0.004,Cc1cc(-c2ccnc3[nH]ncc23)cnc1OCC12CCC(N)(CC1)CC2
2,0.3,Cn1ncc2c(-c3ccc(OCC45CCC(N)(CC4)CC5)c(F)c3)nc(N)nc21
3,0.055,Cc1cc(-c2ccnc3[nH]ncc23)cnc1OCC12CCC(O)(CC1)CC2
4,2,CN1CCN(CCCOc2ccc(-c3nn(C)c4nc(N)ncc34)cc2F)CC1

# Molecular target: T2, Toll-like receptor 9 (Mus musculus, UniProt Q9EQU3)
# T2 sequence (Q9EQU3 whole entry): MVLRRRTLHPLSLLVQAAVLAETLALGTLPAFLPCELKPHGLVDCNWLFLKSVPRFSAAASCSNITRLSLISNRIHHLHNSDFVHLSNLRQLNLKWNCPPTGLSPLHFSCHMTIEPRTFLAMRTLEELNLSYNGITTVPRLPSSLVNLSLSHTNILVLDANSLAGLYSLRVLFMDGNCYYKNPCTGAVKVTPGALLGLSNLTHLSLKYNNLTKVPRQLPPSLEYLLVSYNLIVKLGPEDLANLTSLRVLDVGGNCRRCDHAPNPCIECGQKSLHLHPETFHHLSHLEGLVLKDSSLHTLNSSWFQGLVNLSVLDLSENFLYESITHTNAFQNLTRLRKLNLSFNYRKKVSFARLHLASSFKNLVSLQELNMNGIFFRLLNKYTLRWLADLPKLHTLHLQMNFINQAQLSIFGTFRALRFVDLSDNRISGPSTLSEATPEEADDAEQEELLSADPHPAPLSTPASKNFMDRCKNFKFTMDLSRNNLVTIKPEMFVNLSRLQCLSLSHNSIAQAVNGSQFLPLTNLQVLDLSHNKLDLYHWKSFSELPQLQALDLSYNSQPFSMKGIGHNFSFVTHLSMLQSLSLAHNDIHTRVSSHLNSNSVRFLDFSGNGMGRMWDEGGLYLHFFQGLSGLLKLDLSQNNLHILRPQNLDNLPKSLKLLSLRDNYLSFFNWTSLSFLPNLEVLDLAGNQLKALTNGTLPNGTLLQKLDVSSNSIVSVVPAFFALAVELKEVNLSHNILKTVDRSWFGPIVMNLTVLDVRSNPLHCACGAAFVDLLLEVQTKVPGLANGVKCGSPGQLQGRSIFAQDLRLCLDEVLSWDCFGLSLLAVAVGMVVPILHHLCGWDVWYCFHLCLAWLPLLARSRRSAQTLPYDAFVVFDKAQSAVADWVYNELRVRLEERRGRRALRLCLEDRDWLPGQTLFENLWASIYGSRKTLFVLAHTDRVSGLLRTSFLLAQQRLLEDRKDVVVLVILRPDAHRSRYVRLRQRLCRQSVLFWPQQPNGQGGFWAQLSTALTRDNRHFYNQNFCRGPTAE
# Assay: Antagonist activity at TLR9 in mouse splenocytes assessed as inhibition of CpG1585-induced IL6 production
# Format: cell-based, Splenocyte
# Details: not given
row,IC50 [µM],SMILES
1,1.2,Cc1cc(-c2ccnc3[nH]ncc23)cnc1OCC12CCC(N)(CC1)CC2
2,0.8,Cn1ncc2c(-c3ccc(OCC45CCC(N)(CC4)CC5)c(F)c3)nc(N)nc21
3,> 10,Cc1cc(-c2ccnc3[nH]ncc23)cnc1OCC12CCC(O)(CC1)CC2
4,2,CN1CCN(CCCOc2ccc(-c3nn(C)c4nc(N)ncc34)cc2F)CC1

# Molecular target: T3, Toll-like receptor 8 (Homo sapiens, UniProt Q9NR97)
# T3 sequence (Q9NR97 whole entry): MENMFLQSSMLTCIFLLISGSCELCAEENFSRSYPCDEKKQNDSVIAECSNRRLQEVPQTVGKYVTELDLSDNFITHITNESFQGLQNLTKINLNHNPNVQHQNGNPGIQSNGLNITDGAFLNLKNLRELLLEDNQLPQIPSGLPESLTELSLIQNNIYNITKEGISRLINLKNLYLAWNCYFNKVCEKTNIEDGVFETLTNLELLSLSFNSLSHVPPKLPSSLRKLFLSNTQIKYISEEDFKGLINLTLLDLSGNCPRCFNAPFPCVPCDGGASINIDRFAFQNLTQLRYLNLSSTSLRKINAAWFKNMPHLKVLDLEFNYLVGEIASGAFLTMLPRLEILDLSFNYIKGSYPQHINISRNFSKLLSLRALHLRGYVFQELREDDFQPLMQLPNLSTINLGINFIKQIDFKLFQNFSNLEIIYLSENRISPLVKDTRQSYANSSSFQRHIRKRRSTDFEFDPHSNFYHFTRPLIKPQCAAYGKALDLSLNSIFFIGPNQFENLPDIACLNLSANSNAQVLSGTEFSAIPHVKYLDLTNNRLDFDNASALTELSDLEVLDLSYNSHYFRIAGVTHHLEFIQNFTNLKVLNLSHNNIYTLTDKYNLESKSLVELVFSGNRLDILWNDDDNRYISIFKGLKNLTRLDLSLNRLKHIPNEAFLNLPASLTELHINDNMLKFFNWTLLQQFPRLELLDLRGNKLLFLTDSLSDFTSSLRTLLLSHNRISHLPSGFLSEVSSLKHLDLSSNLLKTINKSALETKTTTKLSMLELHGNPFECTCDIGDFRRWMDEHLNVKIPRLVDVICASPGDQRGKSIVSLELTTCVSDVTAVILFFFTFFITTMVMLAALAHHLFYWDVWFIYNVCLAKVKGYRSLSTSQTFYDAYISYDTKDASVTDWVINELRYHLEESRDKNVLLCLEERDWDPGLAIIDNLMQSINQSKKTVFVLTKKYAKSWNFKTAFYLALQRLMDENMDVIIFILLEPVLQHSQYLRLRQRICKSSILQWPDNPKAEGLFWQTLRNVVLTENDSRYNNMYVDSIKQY
# Assay: Antagonist activity at TLR8 in human THP-1 cells assessed as inhibition of resiquimod-induced TNFalpha production
# Format: cell-based
# Details: not given
row,IC50 [µM],SMILES
1,< 0.001,Cc1cc(-c2ccnc3[nH]ncc23)cnc1OCC12CCC(N)(CC1)CC2

# Molecular target: T4, Toll-like receptor 9 (Homo sapiens, UniProt Q9NR96)
# T4 sequence (Q9NR96 whole entry): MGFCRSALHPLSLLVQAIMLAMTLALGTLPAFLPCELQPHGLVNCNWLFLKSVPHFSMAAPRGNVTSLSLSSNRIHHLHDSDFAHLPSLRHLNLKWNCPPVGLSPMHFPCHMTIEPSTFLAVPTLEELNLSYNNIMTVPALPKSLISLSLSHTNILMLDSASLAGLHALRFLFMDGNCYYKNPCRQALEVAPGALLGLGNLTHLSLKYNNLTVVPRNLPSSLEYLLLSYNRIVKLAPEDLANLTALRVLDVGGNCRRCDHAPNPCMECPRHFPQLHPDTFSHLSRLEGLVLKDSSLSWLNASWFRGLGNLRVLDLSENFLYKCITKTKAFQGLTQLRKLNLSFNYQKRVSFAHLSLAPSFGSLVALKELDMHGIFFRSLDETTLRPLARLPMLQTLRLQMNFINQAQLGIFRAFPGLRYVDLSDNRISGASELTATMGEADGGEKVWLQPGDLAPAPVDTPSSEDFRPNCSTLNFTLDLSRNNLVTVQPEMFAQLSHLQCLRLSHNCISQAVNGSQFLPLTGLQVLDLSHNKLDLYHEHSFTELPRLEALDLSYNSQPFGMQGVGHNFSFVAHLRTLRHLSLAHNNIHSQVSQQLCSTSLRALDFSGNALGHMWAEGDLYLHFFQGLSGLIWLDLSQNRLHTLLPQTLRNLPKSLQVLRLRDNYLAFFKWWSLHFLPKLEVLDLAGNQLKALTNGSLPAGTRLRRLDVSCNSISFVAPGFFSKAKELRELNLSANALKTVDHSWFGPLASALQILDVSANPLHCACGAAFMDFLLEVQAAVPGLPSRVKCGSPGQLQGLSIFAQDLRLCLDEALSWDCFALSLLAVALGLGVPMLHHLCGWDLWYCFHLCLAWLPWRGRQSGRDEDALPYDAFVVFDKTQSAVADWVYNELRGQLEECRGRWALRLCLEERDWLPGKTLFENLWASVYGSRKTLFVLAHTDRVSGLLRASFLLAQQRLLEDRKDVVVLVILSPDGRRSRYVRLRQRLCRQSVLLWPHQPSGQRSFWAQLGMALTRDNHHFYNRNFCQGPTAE
# Assay: Antagonist activity at TLR9 in human PBMC assessed as inhibition of ODN2216-induced IFNalpha production
# Format: tissue-based
# Details: not given
row,IC50 [µM],SMILES
1,1,Cc1cc(-c2ccnc3[nH]ncc23)cnc1OCC12CCC(N)(CC1)CC2
2,3.7,Cn1ncc2c(-c3ccc(OCC45CCC(N)(CC4)CC5)c(F)c3)nc(N)nc21
3,> 5,Cc1cc(-c2ccnc3[nH]ncc23)cnc1OCC12CCC(O)(CC1)CC2

# Tested on: not listed separately
# Assay: AUC in BALB/c mouse at 20 mg/kg, po
# Format: ADME, organism-based
# Parameters: dose 20 mg/kg
# Details: in vivo
row,AUC [µM·h],SMILES
1,29.6,Cc1cc(-c2ccnc3[nH]ncc23)cnc1OCC12CCC(N)(CC1)CC2
2,36.3,Cc1cc(-c2ccnc3[nH]ncc23)cnc1OCC12CCC(O)(CC1)CC2

# Tested on: not listed separately
# Assay: Cmax in BALB/c mouse at 20 mg/kg, po
# Format: ADME, organism-based
# Parameters: route oral, dose 20 mg/kg
# Details: in vivo
row,Cmax [µM],SMILES
1,3.23,Cc1cc(-c2ccnc3[nH]ncc23)cnc1OCC12CCC(N)(CC1)CC2
2,4.37,Cc1cc(-c2ccnc3[nH]ncc23)cnc1OCC12CCC(O)(CC1)CC2

# Tested on: not listed separately
# Assay: Clearance in BALB/c mouse at 5 mg/kg, iv
# Format: ADME, organism-based
# Details: in vivo
row,clearance [mL/min/kg],SMILES
1,23,Cc1cc(-c2ccnc3[nH]ncc23)cnc1OCC12CCC(N)(CC1)CC2
2,11,Cc1cc(-c2ccnc3[nH]ncc23)cnc1OCC12CCC(O)(CC1)CC2

# Tested on: not listed separately
# Assay: Volume of distribution at steady state in BALB/c mouse at 5 mg/kg, iv
# Format: ADME, organism-based
# Details: in vivo, read-out: Vdss
row,Vd [L/kg],SMILES
1,5.1,Cc1cc(-c2ccnc3[nH]ncc23)cnc1OCC12CCC(N)(CC1)CC2
2,3.1,Cc1cc(-c2ccnc3[nH]ncc23)cnc1OCC12CCC(O)(CC1)CC2

# Tested on: not listed separately
# Assay: Terminal half life in BALB/c mouse at 5 mg/kg, iv
# Format: ADME, organism-based
# Details: in vivo, read-out: beta t1/2 (converted)
row,half-life [h],SMILES
1,4,Cc1cc(-c2ccnc3[nH]ncc23)cnc1OCC12CCC(N)(CC1)CC2
2,4.7,Cc1cc(-c2ccnc3[nH]ncc23)cnc1OCC12CCC(O)(CC1)CC2

# Tested on: not listed separately
# Assay: Oral bioavailability in BALB/c mouse at 20 mg/kg
# Format: ADME, organism-based
# Details: in vivo
row,bioavailability [%],SMILES
1,75,Cc1cc(-c2ccnc3[nH]ncc23)cnc1OCC12CCC(N)(CC1)CC2
2,43,Cc1cc(-c2ccnc3[nH]ncc23)cnc1OCC12CCC(O)(CC1)CC2
